Assays:
[1] = Neuroprotective activity in primary neocortical neuron (unknown origin) assessed as inhibition of 4-AP-induced spontaneous calcium channel oscillation frequency measured after 15 min by Fluo-4AM dye based fluorescence assay; format: functional, cell-based
[2] = Neuroprotective activity in primary neocortical neuron (unknown origin) assessed as inhibition of 4-AP-induced spontaneous calcium channel oscillation amplitude measured after 15 min by Fluo-4AM dye based fluorescence assay; format: functional, cell-based
[3] = Primary neocortical neuron, 0.25 h

Compound	IC50 [1, 3]	IC50 [2, 3]	IC50 ([1]; primary neocortical neuron)	IC50 ([2]; primary neocortical neuron)
Cc1cc2c(cc1O)C(=O)[C@](C)(c1ccc(O)c(O)c1)C=C2C(C)C	1.91 µM	8.03 µM	–	–
Cc1cc2c(cc1O)C(=O)[C@@](C)(c1ccc(O)c(O)c1)C=C2C(C)C	2.58 µM	5.77 µM	–	–
Cc1cc2c(cc1O)[C@@](C)(c1ccc(O)c(O)c1)C(=O)C=C2C(C)C	3.09 µM	7.38 µM	–	–
Cc1cc2c(cc1O)[C@](C)(c1ccc(O)c(O)c1)C(=O)C=C2C(C)C	2.05 µM	5.36 µM	–	–
Cc1cc2c(cc1O)C(=O)C(C)(c1ccc(O)c(O)c1)C=C2C(C)C (racemic)	0.97 µM	6.1 µM	–	–
Cc1cc2c(cc1O)C(C)(c1ccc(O)c(O)c1)C(=O)C=C2C(C)C (racemic)	3.45 µM	5.56 µM	–	–
NC1=N[C@H](O)[C@H]2[C@H]3O[C@]4(O)O[C@@H]([C@@H](O)[C@@]2(N1)[C@@H]4O)[C@]3(O)CO [TETRODOTOXIN]	–	–	0.00493 µM	0.00169 µM
